Test results as given in patent publication US20050143350A1, “Combination drug therapy to treat obesity” (priority 2003, published 2005).
“Also recorded” adds a separate entry of the source.

Legend:
[1] = Patient case records: body weight during co-administration of an anticholinesterase agent and an antidepressant; assay type: in vivo, human; design: Weight / Wt. Chg. / Δ Wt.: unit not given here; conditions: for Wt. Chg.: positive = loss
From the text: The following examples illustrate exemplified treatment regimens and resultant synergistic effects in achieving long-term stable weight loss by co-administering to an individual an anticholinesterase agent and an antidepressant. Each patient is given an alphanumeric designator.

P450 cytochrome = conditions: cited from earlier work
[2] = doses over 300 mg a day; cited from earlier work
[3] = in vivo; cited from earlier work
[4] = Patient B3, comments wrap over rows: 'Epigastric discomfort, no vomiting.' (day 70), 'Bowels a little loose' (day 126), 'Vomiting after rivastigmine at supper' (day 175), 'Diethylpropion made them vomit twice.' (day 189)
[5] = patient R2, day 14, baseline 209.3, venlafaxine 75 mg alone, no rivastigmine
[6] = patient R2, day 35, baseline 209.3, venlafaxine 75 mg alone, no rivastigmine
[7] = patient R2, day 111, baseline 209.3, venlafaxine 75 mg alone, no rivastigmine

With CCN(CC)C(C)C(=O)c1ccccc1 (stereo not shown) [Diethylpropion, diethylpropion] the “Comments (side effects)” value [1, 4] was “vomit”.
In the case of CN(C)C(=N)N=C(N)N [Metformin], the “Comments (side effects)” value ([1]; Patient B1, comment wraps over rows: 'Sweating and uncomfortable stomach in a.m.' (day 59), 'Metformin causes diarrhea') is reported as “diarrhea”.
In the case of CCN(C)C(=O)Oc1cccc([C@H](C)N(C)C)c1 [Riva.], the “Comments: adverse effects” value ([1]; patient M1, day 153, Tried 12 mg of Riva.) is reported as “Caused vomit-; also recorded: ing, diarrhea,; also recorded: dizzy. B.P” and the “B.P. (Comments)” value ([1]; patient M1, day 153, Tried 12 mg of Riva., initial B.P. 140/100) is reported as 88/64.
For CCN(C)C(=O)Oc1cccc([C@H](C)N(C)C)c1 [Rivastigmine, rivastigmine], the “Comments (side effects)” value [1, 4] is listed as “Vomiting” and the “metabolism by the P450 cytochrome” value (P450 cytochrome) is listed as “not metabolized by the P450 cytochrome”.
In the case of COc1ccc(C(CN(C)C)C2(O)CCCCC2)cc1 (stereo not shown) [Venlafaxine, venlafaxine], the “Δ Wt.” value ([1]; Patient F1, change from baseline 214.5, positive = weight lost, visit day = Days column (7-512)) is reported as 6.0, the Weight ([1]; human, in vivo) is reported as 208.5 and the Weight [1, 5] is reported as 207.5. The “Wt. Chg.” value [1, 5] was 1.8, the Weight [1, 6] was 206.0 and the “Wt. Chg.” value [1, 6] was 3.3. For the same molecule, the Weight [1, 7] was 213.3, the “Wt. Chg.” value [1, 7] was −4.0 and the “patients with a mild increase in blood pressure” value [2] was 15%. For the same molecule, the “absorption, influence of food” value [3] was “not influenced by the presence of food”.
